Reference: ChEMBL document CHEMBL1149673, “A novel approach to cyclin-dependent kinase 5/p25 inhibitors: A potential treatment for Alzheimer's disease” (Bioorg Med Chem, 2007)

Species on record: Homo sapiens
Assay: Selectivity for Cdk5/p25 over Cdk2/cyclin E
Conditions: not given; call rule not given here

Row | Compound | Ratio IC50
1 | Cc1cc(NC(=O)CCl)sc1-c1nnc2sc(-c3cccc([N+](=O)[O-])c3)nn12 | 1
2 | Cc1cc(NC(=O)CCl)sc1-c1nnc2n1NC(c1ccccc1)=C(c1ccccc1)S2 | 2
3 | CC(=O)Nc1cc(-c2ccccc2)c(-c2nnc3sc(-c4ccccc4)nn23)s1 | 1.2
4 | CC(=O)Nc1cc(-c2ccccc2)c(-c2nnc3sc(-c4cccc([N+](=O)[O-])c4)nn23)s1 | 1
5 | Cc1cc(NC(=O)CCl)sc1-c1nnc2n1Nc1nc3ccccc3nc1S2 | 2.2
6 | CC(=O)Nc1cc(-c2ccccc2)c(-c2nnc(S)n2N)s1 | 1
7 | CC(=O)Nc1cc(C)c(-c2nnc(S)n2N)s1 | 1
8 | O=C(CCl)Nc1cc(-c2ccccc2)c(-c2nnc3n2NC(c2ccccc2)=C(c2ccccc2)S3)s1 | 2
9 | O=C(CCl)Nc1cc(-c2ccccc2)c(-c2nnc3n2Nc2nc4ccccc4nc2S3)s1 | 3.2
10 | CC(=O)Nc1cc(C)c(-c2nnc3sc(-c4cccc([N+](=O)[O-])c4)nn23)s1 | 1
11 | Cc1cc(NC(=O)CCl)sc1-c1nnc2sc(-c3ccccc3)nn12 | 3.2
12 | O=C(CCl)Nc1cc(-c2ccccc2)c(-c2nnc3sc(-c4ccccc4)nn23)s1 | 3.2
13 | CC(=O)Nc1cc(C)c(-c2nnc3sc(-c4ccccc4)nn23)s1 | 1.2
14 | CC(=O)Nc1cc(-c2ccccc2)c(-c2nnc3n2NC(c2ccccc2)=C(c2ccccc2)S3)s1 | 2
15 | CC(=O)Nc1cc(-c2ccccc2)c(-c2nnc3n2Nc2nc4ccccc4nc2S3)s1 | 1.2
16 | Nn1c(S)nnc1-c1sc(NC(=O)CCl)cc1-c1ccccc1 | 3
17 | O=C(CCl)Nc1cc(-c2ccccc2)c(-c2nnc3sc(-c4cccc([N+](=O)[O-])c4)nn23)s1 | 1
18 | CC(=O)Nc1cc(C)c(-c2nnc3n2NC(c2ccccc2)=C(c2ccccc2)S3)s1 | 2
19 | CC(=O)Nc1cc(C)c(-c2nnc3n2Nc2nc4ccccc4nc2S3)s1 | 2

Test system: not listed separately
Assay: Inhibitory activity against Cdk2/cyclin E
Design: species or system Homo sapiens
Conditions: not given

Row | Compound | IC50 [nM]
20 | Cc1cc(NC(=O)CCl)sc1-c1nnc2sc(-c3cccc([N+](=O)[O-])c3)nn12 | 64
21 | Cc1cc(NC(=O)CCl)sc1-c1nnc2n1NC(c1ccccc1)=C(c1ccccc1)S2 | 154
22 | CC(=O)Nc1cc(-c2ccccc2)c(-c2nnc3sc(-c4ccccc4)nn23)s1 | 44
23 | CC(=O)Nc1cc(-c2ccccc2)c(-c2nnc3sc(-c4cccc([N+](=O)[O-])c4)nn23)s1 | 64
24 | Cc1cc(NC(=O)CCl)sc1-c1nnc(S)n1N | 49
25 | Cc1cc(NC(=O)CCl)sc1-c1nnc2n1Nc1nc3ccccc3nc1S2 | 142
26 | CC(=O)Nc1cc(-c2ccccc2)c(-c2nnc(S)n2N)s1 | 56
27 | CC(=O)Nc1cc(C)c(-c2nnc(S)n2N)s1 | 53
28 | O=C(CCl)Nc1cc(-c2ccccc2)c(-c2nnc3n2NC(c2ccccc2)=C(c2ccccc2)S3)s1 | 126
29 | O=C(CCl)Nc1cc(-c2ccccc2)c(-c2nnc3n2Nc2nc4ccccc4nc2S3)s1 | 102
30 | CC(=O)Nc1cc(C)c(-c2nnc3sc(-c4cccc([N+](=O)[O-])c4)nn23)s1 | 78
31 | Cc1cc(NC(=O)CCl)sc1-c1nnc2sc(-c3ccccc3)nn12 | 95
32 | O=C(CCl)Nc1cc(-c2ccccc2)c(-c2nnc3sc(-c4ccccc4)nn23)s1 | 92
33 | CC(=O)Nc1cc(C)c(-c2nnc3sc(-c4ccccc4)nn23)s1 | 51
34 | CC(=O)Nc1cc(-c2ccccc2)c(-c2nnc3n2NC(c2ccccc2)=C(c2ccccc2)S3)s1 | 82
35 | CC(=O)Nc1cc(-c2ccccc2)c(-c2nnc3n2Nc2nc4ccccc4nc2S3)s1 | 64
36 | Nn1c(S)nnc1-c1sc(NC(=O)CCl)cc1-c1ccccc1 | 120
37 | O=C(CCl)Nc1cc(-c2ccccc2)c(-c2nnc3sc(-c4cccc([N+](=O)[O-])c4)nn23)s1 | 52
38 | CC(=O)Nc1cc(C)c(-c2nnc3n2NC(c2ccccc2)=C(c2ccccc2)S3)s1 | 89
39 | CC(=O)Nc1cc(C)c(-c2nnc3n2Nc2nc4ccccc4nc2S3)s1 | 70

Molecular target: Cyclin-dependent kinase 5/CDK5 activator 1 (Homo sapiens, UniProt Q00535)
Assay: Inhibitory activity against Cdk5/p25
Type: protein-complex assay
Conditions: not given

Sequence of Cyclin-dependent kinase 5/CDK5 activator 1 (Q00535 whole entry): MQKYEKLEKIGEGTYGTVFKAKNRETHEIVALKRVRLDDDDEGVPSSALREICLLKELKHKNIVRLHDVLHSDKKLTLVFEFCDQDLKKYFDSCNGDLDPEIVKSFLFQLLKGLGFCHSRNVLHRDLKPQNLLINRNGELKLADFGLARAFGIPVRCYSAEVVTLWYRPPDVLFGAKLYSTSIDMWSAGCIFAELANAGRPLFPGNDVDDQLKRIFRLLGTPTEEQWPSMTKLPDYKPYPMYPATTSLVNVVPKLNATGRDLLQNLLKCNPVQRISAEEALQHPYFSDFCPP
Sequence of Cyclin-dependent kinase 5/CDK5 activator 1 (Q15078 whole entry, further chain): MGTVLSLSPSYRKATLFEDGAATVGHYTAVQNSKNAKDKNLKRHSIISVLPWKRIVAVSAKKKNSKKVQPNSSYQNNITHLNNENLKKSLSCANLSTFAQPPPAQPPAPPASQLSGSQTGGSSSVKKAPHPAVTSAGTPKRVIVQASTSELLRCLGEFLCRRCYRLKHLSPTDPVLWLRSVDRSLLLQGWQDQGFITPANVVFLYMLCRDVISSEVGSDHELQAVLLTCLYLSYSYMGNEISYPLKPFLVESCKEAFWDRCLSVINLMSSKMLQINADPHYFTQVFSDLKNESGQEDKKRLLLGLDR

Row | Compound | IC50 [nM]
40 | Cc1cc(NC(=O)CCl)sc1-c1nnc2n1NC(=O)CS2 | 820
41 | Cc1cc(NC(=O)CCl)sc1-c1nnc2sc(-c3cccc([N+](=O)[O-])c3)nn12 | 53
42 | CC(=O)Nc1cc(-c2ccccc2)c(-c2nnc3n2N=C(c2cc(F)c(Cl)cc2Cl)/C(=C/c2cccc([N+](=O)[O-])c2)S3)s1 | 2440
43 | Cc1cc(NC(=O)CCl)sc1-c1nnc2n1N=C(c1cc(F)c(Cl)cc1Cl)/C(=C/c1ccc(Cl)cc1)S2 | 2970
44 | Cc1cc(NC(=O)CCl)sc1-c1nnc2n1NC(c1ccccc1)=C(c1ccccc1)S2 | 72
45 | O=C(CCl)Nc1cc(-c2ccccc2)c(-c2nnc3n2N=C(c2cc(F)c(Cl)cc2Cl)/C(=C/c2cccc([N+](=O)[O-])c2)S3)s1 | 2680
46 | CC(=O)Nc1cc(-c2ccccc2)c(-c2nnc3sc(-c4ccccc4)nn23)s1 | 38
47 | CC(=O)Nc1cc(-c2ccccc2)c(-c2nnc3sc(-c4cccc([N+](=O)[O-])c4)nn23)s1 | 60
48 | Cc1cc(NC(=O)CCl)sc1-c1nnc(S)n1N | 46
49 | Cc1cc(NC(=O)CCl)sc1-c1nnc2n1Nc1nc3ccccc3nc1S2 | 64
50 | CC(=O)Nc1cc(-c2ccccc2)c(-c2nnc(S)n2N)s1 | 54
51 | CC(=O)Nc1cc(C)c(-c2nnc(S)n2N)s1 | 58
52 | O=C(CCl)Nc1cc(-c2ccccc2)c(-c2nnc3n2NC(c2ccccc2)=C(c2ccccc2)S3)s1 | 62
53 | O=C(CCl)Nc1cc(-c2ccccc2)c(-c2nnc3n2Nc2nc4ccccc4nc2S3)s1 | 30
54 | CC(=O)Nc1cc(C)c(-c2nnc3sc(-c4cccc([N+](=O)[O-])c4)nn23)s1 | 64
55 | Cc1cc(NC(=O)CCl)sc1-c1nnc2sc(-c3ccccc3)nn12 | 30
56 | O=C(CCl)Nc1cc(-c2ccccc2)c(-c2nnc3sc(-c4ccccc4)nn23)s1 | 28
57 | CC(=O)Nc1cc(C)c(-c2nnc3sc(-c4ccccc4)nn23)s1 | 42
58 | CC(=O)Nc1cc(-c2ccccc2)c(-c2nnc3n2NC(c2ccccc2)=C(c2ccccc2)S3)s1 | 40
59 | CC(=O)Nc1cc(-c2ccccc2)c(-c2nnc3n2Nc2nc4ccccc4nc2S3)s1 | 54
60 | Nn1c(S)nnc1-c1sc(NC(=O)CCl)cc1-c1ccccc1 | 42
61 | O=C(CCl)Nc1cc(-c2ccccc2)c(-c2nnc3sc(-c4cccc([N+](=O)[O-])c4)nn23)s1 | 48
62 | CC(=O)Nc1cc(C)c(-c2nnc3n2NC(c2ccccc2)=C(c2ccccc2)S3)s1 | 44
63 | CC(=O)Nc1cc(C)c(-c2nnc3n2Nc2nc4ccccc4nc2S3)s1 | 34

Test system: not listed separately
Assay: Toxicity in Vero-C1008 cells at 6.25 to 50 ug/ml
Type: cell-based
Conditions: African green monkey

Row | Compound | Activity
64 | Cc1cc(NC(=O)CCl)sc1-c1nnc2n1NC(=O)CS2 | Not Active
65 | Cc1cc(NC(=O)CCl)sc1-c1nnc2sc(-c3cccc([N+](=O)[O-])c3)nn12 | Not Active
66 | CC(=O)Nc1cc(-c2ccccc2)c(-c2nnc3n2N=C(c2cc(F)c(Cl)cc2Cl)/C(=C/c2cccc([N+](=O)[O-])c2)S3)s1 | Not Active
67 | Cc1cc(NC(=O)CCl)sc1-c1nnc2n1N=C(c1cc(F)c(Cl)cc1Cl)/C(=C/c1ccc(Cl)cc1)S2 | Not Active
68 | Cc1cc(NC(=O)CCl)sc1-c1nnc2n1NC(c1ccccc1)=C(c1ccccc1)S2 | Not Active
69 | O=C(CCl)Nc1cc(-c2ccccc2)c(-c2nnc3n2N=C(c2cc(F)c(Cl)cc2Cl)/C(=C/c2cccc([N+](=O)[O-])c2)S3)s1 | Not Active
70 | CC(=O)Nc1cc(-c2ccccc2)c(-c2nnc3sc(-c4ccccc4)nn23)s1 | Not Active
71 | CC(=O)Nc1cc(-c2ccccc2)c(-c2nnc3sc(-c4cccc([N+](=O)[O-])c4)nn23)s1 | Not Active
72 | Cc1cc(NC(=O)CCl)sc1-c1nnc(S)n1N | Not Active
73 | Cc1cc(NC(=O)CCl)sc1-c1nnc2n1Nc1nc3ccccc3nc1S2 | Not Active
74 | CC(=O)Nc1cc(-c2ccccc2)c(-c2nnc(S)n2N)s1 | Not Active
75 | CC(=O)Nc1cc(C)c(-c2nnc(S)n2N)s1 | Not Active
76 | O=C(CCl)Nc1cc(-c2ccccc2)c(-c2nnc3n2NC(c2ccccc2)=C(c2ccccc2)S3)s1 | Not Active
77 | O=C(CCl)Nc1cc(-c2ccccc2)c(-c2nnc3n2Nc2nc4ccccc4nc2S3)s1 | Not Active
78 | CC(=O)Nc1cc(C)c(-c2nnc3sc(-c4cccc([N+](=O)[O-])c4)nn23)s1 | Not Active
79 | Cc1cc(NC(=O)CCl)sc1-c1nnc2sc(-c3ccccc3)nn12 | Not Active
80 | O=C(CCl)Nc1cc(-c2ccccc2)c(-c2nnc3sc(-c4ccccc4)nn23)s1 | Not Active
81 | CC(=O)Nc1cc(C)c(-c2nnc3sc(-c4ccccc4)nn23)s1 | Not Active
82 | CC(=O)Nc1cc(-c2ccccc2)c(-c2nnc3n2NC(c2ccccc2)=C(c2ccccc2)S3)s1 | Not Active
83 | CC(=O)Nc1cc(-c2ccccc2)c(-c2nnc3n2Nc2nc4ccccc4nc2S3)s1 | Not Active
84 | Nn1c(S)nnc1-c1sc(NC(=O)CCl)cc1-c1ccccc1 | Not Active
85 | O=C(CCl)Nc1cc(-c2ccccc2)c(-c2nnc3sc(-c4cccc([N+](=O)[O-])c4)nn23)s1 | Not Active
86 | CC(=O)Nc1cc(C)c(-c2nnc3n2NC(c2ccccc2)=C(c2ccccc2)S3)s1 | Not Active
87 | CC(=O)Nc1cc(C)c(-c2nnc3n2Nc2nc4ccccc4nc2S3)s1 | Not Active
